One test concerns PBPs. Description: Gel-based analysis of β-lactone probes applied to Bacillus subtilis PY79 cells. The test is classed as cell-based. The settings on record: B. subtilis PY79 cells, probe 5 μg/ml. As for the experimental part:
Bacillus subtilis strain PY79, was grown in Luria Bertani (LB) medium in 100×17 mm tubes by incubation at 37° C., shaking at 200 rpm. For labeling experiments, overnight cultures were diluted to OD600=0.01-0.05 and grown as above. Samples with OD600=0.35-0.40 were utilized in labeling experiments conducted as previously described (Kocaoglu, O, et al. (2013) Curr Protoc Chem Biol 5, 239), and summarized as follows: Cell pellets from 1.0 ml of B. subtilis cultures were harvested by centrifugation (8,000×g for 2 min at RT) and washed with phosphate buffered saline (PBS; pH 7.4). […] The protein concentration was measured by NanoDrop 1000 Spectrophotometer (Thermo Scientific) or NanoPhotometer P330 (IMPLEN). […] The protein bands were separated by gel electrophoresis for 1.5 h at 180 V, 400 mA, 60 W. The gel was rinsed with distilled water three times before fluorescence scanning (method description for FIGS. 10a and 10b). […]
After SDS-PAGE, labeled proteins were visualized at 50-μm resolution in gels using a Typhoon 9210 gel scanner (Amersham Biosciences) with 580-nm bandpass filter for TAMRA, 526-nm short-pass filter for fluorescein and BODIPY FL, and 670-nm bandpass filter for BODIPY 650/665. All gel images were analyzed using ImageJ software (National Institutes of Health). […]

For the next test, the system named is PBP2x and PBP2b. As to the kind of experiment: Dual-labeling experiments, 7FL followed by 8T. In kind it is cell-based, S. pneumoniae. The settings on record: both 5 μg/mL for 20 minutes. As for the experimental part:
S. pneumoniae E193 (Δpbp1b) cells were grown in BHI broth at 37° C. in an atmosphere of 5% CO2 to reach an OD620 of 0.2-0.25. Cells from 1.5 ml of culture were harvested by centrifugation (16,100×g for 2 min at RT) and washed with 1 ml of PBS, pH 7.4. Cell pellets were resuspended in 50 μl of PBS containing 5 μg/ml lactone-L-Phe-FL (7FL) and incubated at RT for 20 min. Cells were then washed with 1 ml PBS prior to suspension in 50 μl of 5 μg/ml solution of Lac-D-Phe-TAMRA (8T) in PBS. After incubation for 20 min at RT, cells were washed and resuspended in 100 μl of PBS containing 10 mg/ml of lysozyme. Cell lysis and sample preparation for SDS PAGE was followed as described earlier.

Turning to “(2S,3R)-β-lactone-L-Phe-fluorescein [Probe 7FL]”, in the test with PBPs, the “PBPs labeled (gel-based labeling profile)” value is reported as “comparable to the TAMRA probes”. Further, the “PBP visualized in dual labeling” value in the test with PBP2x and PBP2b was “PBP2x”.
With “(2S, 3R)-β-lactone-D-Phe-TAMRA [Probe 8T]”, in the test on PBPs, the “PBPs labeled (gel-based labeling profile)” value was “PBP1, PBP2b and PBP5”. Besides, in the test with PBP2x and PBP2b, the “PBP visualized in dual labeling” value is “PBP2b”.

Values taken from patent US10822318B2, “Lactone-based probes and methods of use thereof” (REGENTS OF THE UNIVERSITY OF MINNESOTA, priority 2017, dated 2020).
